Here are results for two molecules from patent publication EP1721601A1, “Use of taurine for enhancing lipid synthesis in the epidermis” (Henkel Kommanditgesellschaft auf Aktien, priority 2005, dated 2006).

“Also recorded” adds a separate entry of the source.

Data set [1] deals with epidermale Barrierefunktion. Kind of data set: Epidermal barrier function (TEWL) after repetitive SDS damage in vivo. From the text:
Anschließend wurden Öl-in-Wasser-Emulsionen mit 1,5 Gew.-% Behenylalkohol und 2,75 Gew.-% Arachidylalkohol (VAR1: 0 Gew.-% Taurin; VAR2: 1 Gew.-% Taurin) appliziert, oder die Haut verblieb unbehandelt (VAR3). Diese Behandlung wurde zweimal täglich an 5 Tagen durchgeführt. Der transepidermale Wasserverlust (TEWL) wurde jeweils vor der SDS-Schädigung mit einem […] (Courage & Khazaka, Köln, Germany) bestimmt. Die Daten wurden auf die t0-Werte normiert und ein dimensionsloser Wert "area under the curve" errechnet (siehe Tabelle 1). Die statistische Analyse der Daten basiert auf dem gepaarten Wilcoxon-Test. Die Daten repräsentieren die Mittelwerte (n=18). Tab. 2: Einfluss von Taurin auf Irritationsmarker in vitro

Data set [2] deals with Epidermismodelle. In words: Irritation markers in vitro: viability and LDH release of SDS-damaged epidermis models. It counts as cell-based. The following applies: for LDH-Freisetzung / Vitalität: 1 h 0,18% SDS, rinsed, then 24 h topical emulsion (C: 0.1 Gew.-% Triamcinolonacetonid; E: 1 Gew.-% Taurin; B: no further treatment), mean +/- SEM, n=3; for LDH-Freisetzung: unbehandelt 0,22, Vehikel 1,95; for Vitalität: unbehandelt 100, Vehikel 66. The method, then: (§1) Anschließend wurden die Epidermismodelle abgespült und für weitere 24h unter topischer Applikation folgender Emulsionen inkubiert: C: Kortikoid-ratiopharm® Creme (0.1 Gew.-% Triamcinolonacetonid); D: 1,5 Gew.-% Behenylalkohol + 2,75 Gew.-% Arachidylalkohol; E: 1,5 Gew.-% Behenylalkohol + 2,75 Gew.-% Arachidylalkohol +1 Gew.-% Taurin. […] Die Daten repräsentieren die Mittelwerte +/-SEM (n=3).
For orientation: Release of lactate dehydrogenase indicates damage to the cell membrane.

Data set [3] concerns Interleukin 1-alpha (IL-1alpha). In words: Irritation markers in vitro: IL-1alpha release of SDS-damaged epidermis models. The data set is classed as cell-based. To be noted: for IL-1alpha-Freisetzung: 1 h 0,18% SDS, rinsed, then 24 h topical emulsion (C: 0.1 Gew.-% Triamcinolonacetonid; E: 1 Gew.-% Taurin; B: no further treatment), mean +/- SEM, n=3, unbehandelt 15, Vehikel 387. The method, then: as §1

In a further data set the test system is Prostaglandin E2 (PGE2). In words: Irritation markers in vitro: PGE2 release of SDS-damaged epidermis models. The data set is classed as cell-based. The following applies: for PGE2-Freisetzung: 1 h 0,18% SDS, rinsed, then 24 h topical emulsion (C: 0.1 Gew.-% Triamcinolonacetonid; E: 1 Gew.-% Taurin; B: no further treatment), mean +/- SEM, n=3, unbehandelt 0,84, Vehikel 1,40. The method, then:
as §1

The subject of data set [4] is Epidermismodelle. Kind of data set: Epidermal synthesis of barrier lipids in epidermis models. It counts as cell-based. The method, then: Epidermismodelle wurden 12 Tage lang kultiviert. Nach 12 Tagen (t = 0) wurden die individuell entwickelten sogenannten Barrierelipide (Ceramide, Cholesterol, Fettsäuren, Cholesterolsulfate und Cholesterolester) quantifiziert. Anschließend wurde ein Teil der Epidermismodelle 5 Tage lang ohne Zusatz von Taurin weiterkultiviert. Ein anderer Teil der Epidermismodelle wurde 5 Tage lang […] Zusatz von 0,3 mM Taurin weiterkultiviert. Nach insgesamt 17 Tagen Kultivierungsdauer (t = 5) wurden erneut die Barrierelipide quantifiziert. […] Die in Tab. 3 gezeigten Unterschiede zu t = 5 waren statistisch signifikant (p<0,05). Tabelle 3: Einfluss von Taurin auf die epidermale Synthese von Barrierelipiden (Angaben der Menge an Barrierelipiden in Gew.-%, bezogen auf den Gesamtlipidgehalt der Epidermismodelle, Mittelwerte aus n = 4 Messungen (± Standardabweichung))

The mark [5] stands for this setting: incubation of skin models with Taurin, result in words.

As for `NCCS(=O)(=O)O` [Taurin, 2-Aminoethansulfonsäure], the “TEWL "area under the curve", Mittelwert in % (Unbehandelt = 100 %)” value in data set [1] (O/W emulsion with 1 Gew.-% Taurin after occlusive 0.75% SDS, twice daily on 5 days, n=18, Vehikel 62,5 %) was 30,3%. Also, the “transepidermaler Wasserverlust (TEWL), "area under the curve", Mittelwert” value in data set [1] (O/W emulsion with 1 Gew.-% Taurin after occlusive 0.75% SDS, twice daily on 5 days, normalised to t0, n=18) was determined as 881932 arbitrary units. Also, in data set [1] (application of Taurin, result in words), the “Regeneration der Hautbarrierefunktion nach SDS-Schädigung” value is “signifikant beschleunigt”. For the same molecule, the “transepidermaler Wasserverlust (TEWL)” value in data set [1] (topical application of Taurin after repeated SDS treatment of the skin, result in words) is “senkte den TEWL in signifikantem Ausmaß”. Besides, in the data set with Epidermismodelle [2], the LDH-Freisetzung is on record as 1,30 +/- 0,15 OD 492nm and the Vitalität is 82 +/- 2%. Also, in the data set on Epidermismodelle [2] (setting [5]), the “Integrität der Keratinozytenmembran” value is “stabilisierte sich” and the “Vitalität der Keratinozyten” value is given as “verbesserte sich”. For the same molecule, in data set [3], the IL-1alpha-Freisetzung stood at 288 ± 37 pg/mL. In addition, the “Ausschüttung von Interleukin-1-alpha” value in data set [3] (setting [5]) is “nahm die Ausschüttung von Interleukin-1-alpha und von Prostaglandin-E2 ab”. Besides, in the data set with Prostaglandin E2 (PGE2), the PGE2-Freisetzung is 0,83 +/- 0,05 ng/ml. Besides, the “Ausschüttung von Prostaglandin-E2” value in the data set on Prostaglandin E2 (PGE2) (setting [5]) is reported as “nahm die Ausschüttung von Interleukin-1-alpha und von Prostaglandin-E2 ab”. Further, the Cholesterolsulfat in the data set with Epidermismodelle [4] (0,3 mM Taurin for 5 days (t = 5, 17 days culture), % of total lipid content, mean of n = 4 (± SD), without Taurin 0,6) is listed as 1,0 (± 0,2) Gew.-%. Also, the Cholesterol-ester with Epidermismodelle [4] (0,3 mM Taurin for 5 days (t = 5, 17 days culture), % of total lipid content, mean of n = 4 (± SD), without Taurin 0,9) is on record as 1,6 (± 0,2) Gew.-%. The Fettsäuren with Epidermismodelle [4] (0,3 mM Taurin for 5 days (t = 5, 17 days culture), % of total lipid content, mean of n = 4 (± SD), without Taurin 3,5) is recorded as 5,7 (± 1,5) Gew.-%. For the same molecule, the Ceramide with Epidermismodelle [4] (0,3 mM Taurin for 5 days (t = 5, 17 days culture), % of total lipid content, mean of n = 4 (± SD), without Taurin 7,1) is 11.7 (± 1,6) Gew.-%. In addition, in the data set with Epidermismodelle [4] (0,3 mM Taurin for 5 days (t = 5, 17 days culture), % of total lipid content, mean of n = 4 (± SD), without Taurin 9,9), the Cholesterol was 11,0 (± 1,2) Gew.-%. Moreover, in the data set with Epidermismodelle [4] (skin models with Taurin, result in words), the “Spiegel an Ceramiden, Cholesterol und freien Fettsäuren” value is recorded as “in gleichem Ausmaß”. The “epidermale Synthese von Barrierelipiden” value with Epidermismodelle [4] (skin/epidermis models with Taurin, result in words, differences at t = 5 significant (p<0,05)) is on record as “in signifikantem Ausmaß die Synthese aller drei Klassen von Barrierelipiden; also recorded: Steigerung der epidermalen Synthese von Barrierelipiden”.

As to `CC1(C)O[C@@H]2C[C@H]3[C@@H]4CCC5=CC(=O)C=C[C@]5(C)[C@@]4(F)[C@@H](O)C[C@]3(C)[C@]2(C(=O)CO)O1` [Triamcinolonacetonid, reference compound], in the data set with Epidermismodelle [2], the LDH-Freisetzung is given as 1,19 +/- 0,16 OD 492nm and the Vitalität is 86 +/- 8%. The molecule further came in with an IL-1alpha-Freisetzung in data set [3] of 292 ± 26 pg/mL. Further, the PGE2-Freisetzung in the data set on Prostaglandin E2 (PGE2) is listed as 0,30 +/- 0,05 ng/ml.
